Tests used:
[1] = biological target: T1, 3-beta-hydroxysteroid-Delta(8),Delta(7)-isomerase (Cavia porcellus, UniProt Q60490); test: Inhibition of [3H]-emopamil binding to Sterol delta 8-delta 7 isomerase in guinea pig liver membrane; type: cell membranes
T1 sequence (Q60490 whole entry): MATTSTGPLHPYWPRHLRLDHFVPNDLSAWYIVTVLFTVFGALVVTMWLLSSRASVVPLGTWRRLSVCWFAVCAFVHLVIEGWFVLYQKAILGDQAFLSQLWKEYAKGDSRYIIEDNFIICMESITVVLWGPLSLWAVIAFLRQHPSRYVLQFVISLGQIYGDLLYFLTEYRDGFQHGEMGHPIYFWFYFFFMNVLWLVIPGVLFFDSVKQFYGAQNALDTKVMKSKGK

Sigma 2 receptor = test: Inhibition of [3H]DTG binding to Sigma receptor type 2 in rat liver membrane; type: cell membranes
[2] = biological target: Sigma non-opioid intracellular receptor 1 (Homo sapiens) (UniProt Q99720); test: Relative affinity for sigma-2 over sigma-1 receptors
Sequence of Sigma non-opioid intracellular receptor 1 (Homo sapiens) (Q99720 whole entry): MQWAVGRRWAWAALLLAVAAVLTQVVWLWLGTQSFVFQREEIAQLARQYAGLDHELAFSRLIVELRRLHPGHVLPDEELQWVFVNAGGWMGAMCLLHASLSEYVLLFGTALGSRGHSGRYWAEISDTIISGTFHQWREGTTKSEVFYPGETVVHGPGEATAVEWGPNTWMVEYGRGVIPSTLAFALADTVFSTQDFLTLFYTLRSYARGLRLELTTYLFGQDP

Cavia porcellus = species: Cavia porcellus; test: Relative affinity for sterol delta-(8)-delta-(7) isomerase over sigma-1 receptor

Ki [1] [nM]	Ki (Sigma 2 receptor) [nM]	Ratio [2]	Ratio (Cavia porcellus)	Compound
3.73	186	547	11	CC1CCN([C@@H](C)COc2ccc(Cl)cc2)CC1
18.7	62	36	11	CC1CCN(C[C@@H](C)COc2ccc(Cl)cc2)CC1
3.38	318	–	–	CC1CCN(C[C@@H](C)Oc2ccc(Cl)cc2)CC1
14.5	40.8	37	13	CC1CCN(C[C@H](C)COc2ccc(Cl)cc2)CC1
35.1	332	–	–	CC1CCN(C[C@H](C)Oc2ccc(Cl)cc2)CC1
27.5	52.3	44	23	CC1CCN([C@H](C)COc2ccc(Cl)cc2)CC1

More lines, now with the values behind:

Compound	Ki [1] [nM]	Ki (Sigma 2 receptor) [nM]	Ratio [2]	Ratio (Cavia porcellus)
CC1CCN(CCCOc2ccc(Cl)cc2)CC1	9.65	38.6	–	–
C(/C=C/c1ccc2c(c1)OCO2)=C\CN1CCCCC1	–	554	–	–
CC1CCN(CCOc2ccc(Cl)cc2)CC1	3.7	239	–	–
CC1CCN([C@@H](C)CCOc2ccc(Cl)cc2)CC1	37	31.6	–	–
CC1CCN(CC[C@H](C)Oc2ccc(Cl)cc2)CC1	12	65.9	–	–
CC1CCN(CC[C@@H](C)Oc2ccc(Cl)cc2)CC1	30.1	13.9	–	–
CC(C(O)c1ccc(O)cc1)N1CCC(Cc2ccccc2)CC1 (racemic) [IFENPRODIL]	2.71	–	–	–
CC1CCN([C@H](C)CCOc2ccc(Cl)cc2)CC1	7.79	15.1	–	–

From ChEMBL document CHEMBL1136792, “Synthesis of chiral 1-[omega-(4-chlorophenoxy)alkyl]-4-methylpiperidines and their biological evaluation at sigma1, sigma2, and sterol delta8-delta7 isomerase sites” (J Med Chem, 2003)
